The source of these data is patent US20050191348A1 (priority 2004, published 2005).

One assay addresses T1, rat brain MAO-A (Rattus norvegicus, UniProt P21396).
T1 construct: from tissue; host or cells: rat brain homogenate
T1 sequence (P21396 1-526): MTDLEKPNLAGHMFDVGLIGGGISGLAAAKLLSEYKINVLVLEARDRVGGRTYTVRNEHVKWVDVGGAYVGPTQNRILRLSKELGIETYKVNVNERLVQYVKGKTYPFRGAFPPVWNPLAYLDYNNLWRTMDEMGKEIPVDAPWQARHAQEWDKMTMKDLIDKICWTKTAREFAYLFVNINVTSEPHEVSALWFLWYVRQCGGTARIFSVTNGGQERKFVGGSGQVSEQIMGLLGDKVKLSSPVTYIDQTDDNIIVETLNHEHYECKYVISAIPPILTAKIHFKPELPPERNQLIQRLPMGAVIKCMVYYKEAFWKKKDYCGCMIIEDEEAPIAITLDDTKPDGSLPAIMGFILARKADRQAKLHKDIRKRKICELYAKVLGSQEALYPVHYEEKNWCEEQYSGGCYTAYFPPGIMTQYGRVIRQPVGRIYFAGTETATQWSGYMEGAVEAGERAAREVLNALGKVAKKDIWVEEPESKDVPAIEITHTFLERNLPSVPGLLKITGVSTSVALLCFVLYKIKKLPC
Description: In vitro inhibition of rat brain MAO-A. The class given is biochemical. To be noted: rat brain homogenate, 60 min preincubation at 37° C., 14C-5-hydroxytryptamine. How it is done:
(§1) To determine the activity of MAO-A and MAO-B, the test compound is added to a suitable dilution of the enzyme preparation from rat brain (70 μg protein for MAO-B and 150 μg MAO-A assay) in 0.05 M phosphate buffer (pH 7.4). Tthe mixture is incubated together with […], a specific inhibitor of MAO-B (for determination of MAO-A) or with […], a specific inhibitor of MAO-A (for determination of MAO-B). Incubation is carried for 1 h at 37° C. before addition of ^14C-5-hydroxytryptamine binoxalate ([…]), for determination of MAO-A, or ^14C-phenylethylamine ([…]), for determination of MAO-B, and incubation is continued for 30 min or 20 min, respectively. The reaction is stopped with 2 M ice-cold citric acid, and the metabolites are extracted and determined by liquid-scintillation counting in cpm units.
Thus, in one experiment, the in vitro inhibitory activity of 5-(4-propargylpiperazin-1-ylmethyl)-8-hydroxy-quinoline (HLA20) and the 8-hydroxyquinoline derivative designated M32 (both iron chelators disclosed in the International Application PCT/IL03/00932), and propargylamine (P) (0.1, 1, 10, 100 μM) were tested against rat brain MAO-A. The test compounds were added to buffer containing 0.05 μM deprenyl and were incubated with the tissue homogenate for 60 min at 37° C. before addition of ^14C-5-hydroxytryptamine. […]

Another assay has as its target T2, rat brain MAO-B (Rattus norvegicus, UniProt P19643).
T2 construct: from tissue; host or cells: rat brain homogenate
T2 sequence (P19643 1-520): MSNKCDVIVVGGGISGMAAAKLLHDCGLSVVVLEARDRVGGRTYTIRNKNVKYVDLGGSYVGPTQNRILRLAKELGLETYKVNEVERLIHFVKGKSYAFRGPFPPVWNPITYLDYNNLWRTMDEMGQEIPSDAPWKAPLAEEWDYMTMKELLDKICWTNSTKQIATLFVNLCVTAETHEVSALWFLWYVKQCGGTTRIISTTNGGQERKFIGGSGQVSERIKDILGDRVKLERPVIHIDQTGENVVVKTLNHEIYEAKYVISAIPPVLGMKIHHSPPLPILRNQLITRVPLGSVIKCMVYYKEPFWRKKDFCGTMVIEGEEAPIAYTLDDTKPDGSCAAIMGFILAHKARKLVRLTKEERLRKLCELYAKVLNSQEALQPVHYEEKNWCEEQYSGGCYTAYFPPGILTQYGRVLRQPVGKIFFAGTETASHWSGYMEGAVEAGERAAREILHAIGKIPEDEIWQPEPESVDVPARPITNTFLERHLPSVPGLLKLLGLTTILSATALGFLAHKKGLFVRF
The assay can be described thus: In vitro inhibition of rat brain MAO-B. In kind it is biochemical. As to the method:
as §1
In another experiment, the in vitro inhibitory activity of propargylamine (P) against rat brain MAO-B was tested. Propargylamine (0.1, 1, 10, 100 μM) was added to buffer containing 0.05 μM clorgylin and was incubated with the tissue homogenate for 60 minutes at 37° C. before addition of ^14C-5-phenylethylamine. MAO-BA activity in presence of the test compound was expressed as a percentage of that in control samples. Mean values shown±SEM.

Another assay relates to PKC. The assay can be described thus: PKC phosphorylation in PC12 cell lysates, Western blot with p-PKC (pan) antibody. The class given is cell-based, rat. As to conditions: PC12, 0.1, 1 and 10 μM, 1 h. As to the method:
(iv) Immunoblot Analyses. For Western blot analyses, attached cells were washed once in cold PBS and then lysed in 1× nonreducing Laemmli buffer followed by boiling for 3-5 min. Protein content was determined using the Bradford method. Equal amounts of protein were separated by SDS-polyacrylamide gel electrophoresis and blotted onto polyvinylidene difluoride (PVDF) membranes (Millipore). Membranes were treated with blocking buffer (5% dry milk in PBS or 5% dry milk, 0.05% Tween 20 (Sigma) in TBS). Primary antibodies were diluted in PBS or in TBS containing 5% BSA, 0.05% Tween 20 and incubated with membranes for 20 h at 4° C., followed by incubation (1 h at room temperature) in dilutions of horseradish peroxidase (HRP)-conjugated secondary antibodies in the same buffers. Following antibody incubations, membranes were washed in 0.5% Tween 20 in PBS or TBS. Detection was achieved using ECL™ Western Blotting Detection Reagent (Amersham, Pharmacia, Little Chalfort Buckinghamshire, UK). Quantification of results was accomplished by measuring the optical density of the labeled bands from the autoradiograms by scanning laser densitometry using the computerized imaging program Bio-ID (Imager, Bio1D software; Vilber Lourmat, Marne La Vallee, France). The values were normalized to β-actin intensity levels.
Since activation of PKC has been shown previously to modulate cell viability, resulting in protection of neuronal cells, it was of interest to investigate the effects of rasagiline on PKC activation. In one experiment, PC12 cells were untreated or treated with various concentrations of rasagiline (0.1, 1 and 10 μM) for 1 hour. […] Phosphorylation of PKC was analyzed in cell lysates by Western blotting and detected with p-PKC (pan) antibody.
The effect of propargylamine on PKC phosphorylation/activation was investigated as described in Example 2 above.
(A western blot detects proteins with antibodies after separation by electrophoresis.)

The subject of a further assay is PC12 cells. Description: Cell death under serum deprivation (apoptotic cell death detection ELISA), PC12. The class given is cell-based, rat. As to conditions: PC12, 24 h serum deprivation, significant at 1 and 10 μM. On the technique in general: In an ELISA, binding on a coated surface is turned into a signal by an enzyme label.
The test system of assay [1] is SH-SY5Y neuroblastoma cells. The assay can be described thus: Cell death under serum deprivation (apoptotic cell death detection ELISA), SH-SY5Y. In kind it is cell-based, human. As to conditions: 24 h serum deprivation, significant at 1 and 10 μM.
Description: (ii) Cell culture, viability measurements and experimental treatments. Two different neuronal cell lines were used: the rat PC12 and the human neuroblastoma SH-SY5Y cells.
SH-SY5Y neuroblastoma cells were plated in 100-mm culture dishes and cultured in Dulbecco's modified Eagle's medium (DMEM; 4500 mg/l glucose), containing 10% fetal calf serum (FCS) and a mixture of 1% penicillin/streptomycin/nystatin.
(§2) Cell cultures were incubated at 37° C. in a humid 5% CO2-95% air environment. For cell viability assays, cells were treated with various drugs in serum free media containing 0.1% BSA.
(iii) Measurement of cell death.
(§3) In order to test cell viability, PC12 cells and SH-SY5Y neuroblastoma cels were incubated under serum deprivation and were untreated or treated with rasagiline (0.1. 1 or 10 μM) for 24 hours.
In order to test cell viability, PC12 cells and SH-SY5Y neuroblastoma cels were incubated under serum deprivation and were untreated or treated with propargylamine (0.1. 1 or 10 μM) for 24 hours.

What is called IC50 is the concentration at which inhibition is half-maximal.

Description for PC12 cells: Two different neuronal cell lines were used: the rat PC12 and the human neuroblastoma SH-SY5Y cells.
PC12 cells, originated from rat pheochromocytoma, were grown to confluence in T75 flasks containing DMEM (1000 mg/l glucose) and supplemented with 5% FCS, 10% horse serum, and a mixture of 1% of penicillin/streptomycin/nystatin.
as §2, §3

Turning to `C#CCN` [propargylamine], the IC50 on rat brain MAO-A was around 66 µM; at rat brain MAO-B (rat brain homogenate, 60 min preincubation at 37° C., 14C-phenylethylamine), around 10 µM. Besides, the “MAO-B versus MAO-A selectivity” value at rat brain MAO-B (from IC50 values, rat brain) is reported as “preferentially selective for MAO-B inhibition”. The PKC phosphorylation entry in the assay on PKC is reported as “significant, dose-dependent increase in PKC phosphorylation”. In addition, the “cell death induced by serum deprivation” value (with PC12 cells; in assay [1]) was “significantly reduced cell death” each time.
